Entries after “also recorded” stand apart in the source; their conditions may differ.
Legend:
MIF = molecular target: T1, MIF (Homo sapiens, UniProt P14174); assay: MIF catalyzed 4-HPP tautomerization assay; format: biochemical; conditions: for IC50: 4-HPP conversion assay; for Ki: MIF catalyzed 4-HPP tautomerization, n=3
T1 sequence (P14174 2-115 limits assumed): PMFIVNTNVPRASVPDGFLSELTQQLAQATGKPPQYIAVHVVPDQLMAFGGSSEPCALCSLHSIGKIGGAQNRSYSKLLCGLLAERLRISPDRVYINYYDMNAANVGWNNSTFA
Protocol: S2. MIF Tautomerase activity IC50 study
The protocol for measuring inhibition of MIF tautomerase enzyme activity and enzyme kinetics was described previously.[8] Briefly, 180 µL of a 500 nM MIF solution in boric acid buffer (435 mM, pH 6.2) was mixed with 10 µL of a 20 mM EDTA solution in demiwater and 10 µL of a solution of the desired compound dissolved in DMSO or blanc DMSO. This mixture was pre-incubated at room temperature for 10 min. Next, 50 µL of this mixture was mixed with 50 µL of a 1 mM 4-HPP solution in ammonium acetate buffer (50 mM, pH 6.0). Subsequently, MIF tautomerase activity was monitored by measuring the increase of UV absorbance at 306 nm over time. MIF tautomerase activity in the presence a blank DMSO dilution was set to 100% enzyme activity. Non-catalyzed conversion of the substrate in absence of MIF was set to 0%.
Data from the first three minutes were used to calculate the initial velocities. All experiments were repeated three times and calculations were performed with the program GraphPad Prism.
Table S1. 4-HPP conversion assay results of MIF PROTACs
(also on this page, place not known: p rotocol previously. subs trate log [MD-1] (10^-6 M) Activity of MIF tautomerase(%) -2 -1 0 1 2 0 50 100 log [MD-2] (10^-6 M) Activity of MIF tautomerase(%) -2 -1 0 1 2 0 50 100)

A549 cell spheroids = assay: 3D tumor spheroid assay; format: cell-based, human; conditions: 12 days; for influence on spheroid tumor growth: 5 μM
Protocol: A 3D spheroid model was employed to investigate the effect of longer term MD13 treatment in a more complex model for tumor growth. The 3D spheroid model was established using A549 cancer cells by a method adapted from Feng et al.[48] The spheroids were grown over a 12‐day period in absence or presence of PROTAC MD13. Each spheroid was prepared from about 1000 A549 cells. After three‐day incubation, these spheroids were treated with 1, 2, or 5 μM of MD13 with 72 hours intervals over 12 days. Spheroid growth was monitored by measuring the diameter and this was compared to day 0 of the treatment. The tumor spheroids in MD13 treated groups were significant smaller compared to the control group (Figure 5 B and Figure S9). With continuous exposure to 1, 2, or 5 μM of MD13 for 12 days, the growth of the spheroid tumor volume was inhibited by 42 %, 53 %, and 81 % compared with control group, respectively. […]
Tumor spheroid assay. A549 cells (1000 cells/well) were seeded onto a 96-well round-bottomed ultra low attachment plate (Corning). After 2 days of incubation without disturbance, the spheroid was treated with indicated compound every 3 days. […]
(1 picture or pasted object on this page, not shown here) […]
inverted microscope (Nikon Eclipse Ti) connected with a NIS-elements software. The data were analyzed and plotted with Graphpad Prism8. […]
cells were seeded in an ultralow attachment 96-well round-bottomed plate (1000 cells/well) to generate tumor spheroids (a single spheroid per well). After initiation, the spheroids were treated with different compounds at the indicated concentrations every three days. DMSO was used as vehicle control. The day of the first treatment was indicated as day 0. (A) Representative images were obtained at the indicated intervals using an inverted microscope. Scale bar: 500 μm. (B) Analysis was carried out using NIS-Elements AR 3.1 software, and growth curves were obtained relative to the untreated spheroids (day 0) and plotted with GraphPad Prism 8. Values are shown as means ± SD (n = 3 spheroids/time point, **p < 0.01 vs control). […]

A549 cells = assay: CyQUANT cell proliferation assay; format: cell-based, human; conditions: 72 hours; for effect on cell proliferation: concentrations up to 20 μM
Protocol: S8. Cell growth, cell cycle and pERK signaling study
Cell proliferation was measured with the CyQUANT® Direct Cell Proliferation Assay Kit (Thermo Fisher, #C35011). A549 cells were cultured in 96-well plates at a density of 1,000 cells/well and treated with different concentrations of MIF PROTAC (0.02-20 μM) for 72 h.
Cells were incubated with detection reagent (100 μL) for 60 min at 37 °C with 5% CO2. The fluorescence of each well was read at 485/535nm by plate reader (BioTek).
Figure S8. Cells were seeded with a density of 1000 cells per well in a 96-well plate. After overnight incubation, the cells were treated with various concentration of MD13 for 72 hours.
The resulting cells were quantified by CyQUANT® cell proliferation assays and compared with the vehicle (DMSO) control (n=3). […]
(also on this page, place not known: (0.02 -20 CO 2. (20 µM) 4 (20 µM) µM 20 µM 0.01 µM 0.08 µM 0.74 µM 6.7 µM 20 µM 0 50 100 Cell (%) H441 n.s. * * ** *** * n.s. MD15 96 -well MD13 proliferation control 96 -well round - 2 3) […]
(1 picture or pasted object on this page, not shown here)

ERK phosphorylation = ERK phosphorylation by western blot; format: cell-based, human; conditions: A549, 2 μM; for effect on pERK levels: 3 and 4 for 24 h, MD15 for 6, 24 or 48 h
Protocol: The effect of treatment with MIF‐directed PROTAC MD13 on MIF‐related signaling pathways was investigated by assessment of ERK phosphorylation using western blot analysis. […] Thus treatment with the MIF‐directed PROTAC MD13 inhibits ERK phosphorylation as a MIF‐related signaling event. […]
ERK signaling pathway study. A549 cells (2x10^5 cells per well) were seeded into each well of a 6-well plate with 2 mL RPMI-1640 medium containing 10% FBS (Costar Europe, Badhoevedorp, The Netherlands), and 1% penicillin/streptomycin solution (Corning). After overnight culturing, the cells were treated with MD13, MD15, or DMSO for the time indicated.
After that, cells were lysed by RIPA buffer containing 1× PhosSTOP and protease inhibitor (PI) cocktail (Roche, Mannheim, Germany). The BCA Protein Assay Kit (Pierce, Rockford IL, USA) was used to determine the protein concentration. 30 µg protein was separated by a pre-cast 10% NuPAGE Bis-Tris gel (Invitrogen, USA) and then transferred to a polyvinylidene difluoride (PVDF) membrane. After blocking with 5% of skimmed milk for 1 hour at room temperature and incubation with the appropriate primary antibody (pERK, #9101, Cell Signaling, 1:1000; GAPDH, #97166, Cell Signaling, 1:10000) overnight at 4 °C, the membrane was treated with an HRP-conjugated secondary goat anti-rabbit antibody (#P0448, Dako, 1:2000) or rabbit anti-mouse antibody (#P0260, Dako, 1:2000) at room temperature for 1 hour.
The protein bands were visualized with enhanced chemiluminescence (ECL) solution (GE Healthcare). The figures were quantified with imageJ software based on grayscale. […]

Ki (MIF) [µM]	SMILES	IC50 (MIF) [µM]	inhibition at 1 µM (A549 cell spheroids; Homo sapiens, A549, 1 μM, treated every three days, read-out: inhibition of growth of spheroid tumor volume) [%]	inhibition at 2 µM (A549 cell spheroids; Homo sapiens, A549, 2 μM, treated every three days, read-out: inhibition of growth of spheroid tumor volume) [%]	inhibition at 5 µM (A549 cell spheroids; Homo sapiens, A549, 5 μM, treated every three days, read-out: inhibition of growth of spheroid tumor volume) [%]	inhibition at 20 µM (A549 cells; Homo sapiens, 20 μM, 2D culture) [%]	inhibition at 2 µM (ERK phosphorylation; Homo sapiens, 24-hour treatment) [%]	influence on spheroid tumor growth (A549 cell spheroids)	effect on cell proliferation (A549 cells)	effect on pERK levels (ERK phosphorylation)
0.055 ± 0.012	CN1C(=O)CCC(N2C(=O)c3cccc(NCCCCCCCC(=O)Nc4ccc(N5Cc6ccc(O)cc6OC5=O)cc4)c3C2=O)C1=O (stereo not shown) [MD15]	0.083 ± 0.018						no significant influence	almost no inhibition; also recorded: no or little effect	no significant decrease
0.103 ± 0.01	COc1ccc(N2Cc3ccc(O)cc3OC2=O)cc1OC [compound 3]							no significant influence	no effect; also recorded: no or little effect	no significant decrease

SMILES	Ki (MIF) [µM]	IC50 (MIF) [µM]	inhibition at 1 µM (A549 cell spheroids; Homo sapiens, A549, 1 μM, treated every three days, read-out: inhibition of growth of spheroid tumor volume) [%]	inhibition at 2 µM (A549 cell spheroids; Homo sapiens, A549, 2 μM, treated every three days, read-out: inhibition of growth of spheroid tumor volume) [%]	inhibition at 5 µM (A549 cell spheroids; Homo sapiens, A549, 5 μM, treated every three days, read-out: inhibition of growth of spheroid tumor volume) [%]	inhibition at 20 µM (A549 cells; Homo sapiens, 20 μM, 2D culture) [%]	inhibition at 2 µM (ERK phosphorylation; Homo sapiens, 24-hour treatment) [%]	influence on spheroid tumor growth (A549 cell spheroids)	effect on cell proliferation (A549 cells)	effect on pERK levels (ERK phosphorylation)
O=C1CCC(N2C(=O)c3cccc(NCCCCCCCC(=O)Nc4ccc(N5Cc6ccc(O)cc6OC5=O)cc4)c3C2=O)C(=O)N1 (stereo not shown) [MD13]	0.071 ± 0.005	0.106 ± 0.007	42	53	81	~50	~50			
